Legend:
Assay in all cases: relative viability (nuclei count vs DMSO), 5 days (fraction); higher = more cells survive
JZL-184 + Trametinib = compound: C1CN(CCC1C(C2=CC3=C(C=C2)OCO3)(C4=CC5=C(C=C4)OCO5)O)C(=O)OC6=CC=C(C=C6)[N+](=O)[O-] [JZL-184] + CC(=O)Nc1cccc(-n2c(=O)n(C3CC3)c(=O)c3c(Nc4ccc(I)cc4F)n(C)c(=O)c(C)c32)c1 [Trametinib] (partner 0.02 µM)
Procedure, shortened: (§1)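 Relative viability was taken as the ratio of nuclei in treated wells to nuclei in vehicle wells. Lung cancer cell lines in 1536-well plates received compounds by pin tool one day after seeding, either one drug alone or a fixed anchor-drug dose plus five library-drug doses (not always all listed) in √10 steps. Nuclei were counted on 4× images after 5 days of treatment, and values are medians of duplicate plates.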

JZL-184 + Crizotinib = compound: C1CN(CCC1C(C2=CC3=C(C=C2)OCO3)(C4=CC5=C(C=C4)OCO5)O)C(=O)OC6=CC=C(C=C6)[N+](=O)[O-] [JZL-184] + C[C@@H](Oc1cc(-c2cnn(C3CCNCC3)c2)cnc1N)c1c(Cl)ccc(F)c1Cl [Crizotinib] (partner 1 µM)
Procedure, shortened: as §1

JZL-184 + Linsitinib = compound: C1CN(CCC1C(C2=CC3=C(C=C2)OCO3)(C4=CC5=C(C=C4)OCO5)O)C(=O)OC6=CC=C(C=C6)[N+](=O)[O-] [JZL-184] + C[C@]1(O)C[C@@H](c2nc(-c3ccc4ccc(-c5ccccc5)nc4c3)c3c(N)nccn32)C1 [Linsitinib] (partner 1 µM)
Procedure, shortened: as §1

JZL-184 + Pemetrexed = compound: C1CN(CCC1C(C2=CC3=C(C=C2)OCO3)(C4=CC5=C(C=C4)OCO5)O)C(=O)OC6=CC=C(C=C6)[N+](=O)[O-] [JZL-184] + Nc1nc2[nH]cc(CCc3ccc(C(=O)N[C@@H](CCC(=O)O)C(=O)O)cc3)c2c(=O)[nH]1 [Pemetrexed] (partner 0.2 µM)
Procedure, shortened: as §1

JZL-184 + Olaparib = compound: C1CN(CCC1C(C2=CC3=C(C=C2)OCO3)(C4=CC5=C(C=C4)OCO5)O)C(=O)OC6=CC=C(C=C6)[N+](=O)[O-] [JZL-184] + O=C(c1cc(Cc2n[nH]c(=O)c3ccccc23)ccc1F)N1CCN(C(=O)C2CC2)CC1 [Olaparib] (partner 8 µM)
Procedure, shortened: as §1

Cell Line | relative viability (JZL-184 + Trametinib; first compound 0.04 µM) | relative viability (JZL-184 + Trametinib; first compound 0.4 µM) | relative viability (JZL-184 + Trametinib; first compound 1.265 µM) | relative viability (JZL-184 + Trametinib; first compound 4 µM) | relative viability (JZL-184 + Crizotinib; first compound 0.04 µM) | relative viability (JZL-184 + Crizotinib; first compound 0.4 µM) | relative viability (JZL-184 + Crizotinib; first compound 1.265 µM) | relative viability (JZL-184 + Crizotinib; first compound 4 µM) | relative viability (JZL-184 + Linsitinib; first compound 0.04 µM) | relative viability (JZL-184 + Linsitinib; first compound 0.4 µM) | relative viability (JZL-184 + Linsitinib; first compound 1.265 µM) | relative viability (JZL-184 + Linsitinib; first compound 4 µM) | relative viability (JZL-184 + Pemetrexed; first compound 0.04 µM) | relative viability (JZL-184 + Pemetrexed; first compound 0.4 µM) | relative viability (JZL-184 + Pemetrexed; first compound 1.265 µM) | relative viability (JZL-184 + Pemetrexed; first compound 4 µM) | relative viability (JZL-184 + Olaparib; first compound 0.04 µM) | relative viability (JZL-184 + Olaparib; first compound 0.4 µM) | relative viability (JZL-184 + Olaparib; first compound 1.265 µM) | relative viability (JZL-184 + Olaparib; first compound 4 µM)
NCI-H1651 | 0.848 | 0.872 | 0.787 | 0.848 | 0.896 | 0.839 | 0.895 | 0.87 | 0.988 | 0.927 | 0.933 | 0.816 | 0.592 | 0.362 | 0.411 | 0.595 | 0.24 | 0.176 | 0.196 | 0.207
NCI-H1666 | 0.888 | 0.828 | 0.856 | 0.839 | 1.17 | 0.983 | 0.872 | 0.992 | 0.836 | 0.921 | 0.917 | 0.881 | 0.802 | 0.842 | 0.875 | 0.865 | 0.755 | 0.716 | 0.712 | 0.735
NCI-H1734 | 0.721 | 0.611 | 0.72 | 0.606 | 0.806 | 0.617 | 0.672 | 0.701 | 0.852 | 0.796 | 0.898 | 0.86 | 0.462 | 0.426 | 0.419 | 0.42 | 0.674 | 0.589 | 0.627 | 0.547
NCI-H1755 | 0.748 | 0.747 | 0.802 | 0.77 | 0.933 | 0.894 | 0.835 | 0.793 | 0.976 | 1.01 | 1.01 | 0.943 | 0.432 | 0.367 | 0.475 | 0.484 | 0.812 | 0.896 | 0.891 | 0.895
NCI-H1792 | 0.347 | 0.406 | 0.495 | 0.448 | 1.04 | 0.713 | 1 | 0.97 | 0.573 | 0.462 | 0.653 | 0.51 | 1.05 | 0.699 | 1.1 | 0.812 | 0.349 | 0.304 | 0.465 | 0.432
NCI-H1915 | 0.301 | 0.293 | 0.328 | 0.297 | 0.924 | 0.821 | 0.902 | 0.84 | 1.14 | 0.996 | 1.09 | 1.02 | 0.506 | 0.485 | 0.535 | 0.534 | 0.262 | 0.264 | 0.273 | 0.233
NCI-H1944 | 0.438 | 0.385 | 0.452 | 0.417 | 1.27 | 1.04 | 1.12 | 1.04 | 1.18 | 1.2 | 1.28 | 1.16 | 0.587 | 0.53 | 0.72 | 0.567 | 0.402 | 0.351 | 0.401 | 0.444
NCI-H1975 | 0.314 | 0.33 | 0.349 | 0.33 | 1.11 | 0.901 | 0.995 | 0.975 | 1.04 | 1.04 | 1.02 | 0.896 | 0.307 | 0.281 | 0.296 | 0.263 | 0.849 | 0.726 | 0.876 | 0.694
NCI-H1993 | 0.496 | 0.51 | 0.517 | 0.559 | 0.956 | 0.805 | 0.934 | 0.903 | 0.703 | 0.773 | 0.727 | 0.696 | 0.63 | 0.577 | 0.619 | 0.68 | 1.11 | 1.05 | 1.13 | 0.966
NCI-H2009 | 0.228 | 0.276 | 0.329 | 0.301 | 1.15 | 1.06 | 1.02 | 1.01 | 1.18 | 1.13 | 1.2 | 1.19 | 1.14 | 1.03 | 1.04 | 0.994 | 0.785 | 0.696 | 0.734 | 0.642
NCI-H2023 | 0.717 | 0.612 | 0.568 | 0.54 | 0.726 | 0.626 | 0.671 | 0.578 | 0.664 | 0.756 | 0.757 | 0.522 | 0.281 | 0.167 | 0.258 | 0.227 | 0.529 | 0.466 | 0.484 | 0.44
NCI-H2085 |  | 0.515 | 0.527 | 0.603 | 0.969 | 0.806 | 0.808 | 0.844 | 0.852 | 0.862 | 1.18 | 0.866 |  | 0.817 | 0.948 | 0.882 |  | 0.743 | 0.815 | 0.704
NCI-H2087 | 0.181 | 0.173 | 0.182 | 0.188 | 0.928 | 0.816 | 0.757 | 0.93 | 1.14 | 0.765 | 0.999 | 0.961 | 0.667 | 0.663 | 0.631 | 0.636 | 0.714 | 0.585 | 0.665 | 0.517
NCI-H2126 | 0.506 | 0.603 | 0.602 | 0.503 | 1.04 | 1.02 | 1.06 | 1.02 | 0.644 | 0.673 | 0.701 | 0.693 | 0.663 | 0.66 | 0.726 | 0.705 | 0.892 | 0.891 | 0.975 | 0.925
NCI-H2228 | 0.465 | 0.472 | 0.704 | 0.629 | 0.543 | 0.442 | 0.517 | 0.511 | 0.642 | 0.892 | 0.636 | 0.616 | 0.397 | 0.336 | 0.38 | 0.337 | 1.13 | 0.613 | 0.915 | 0.977

Source: the supplement of paper PMC10307832
